# Data reported in BindingDB's records for patent US10100058 (Gilead Sciences, 2018).
# Target: Calcium/calmodulin-dependent protein kinase type II subunit delta (Homo sapiens, UniProt Q13557)
# Experiment: CaMKII delta Biochemical Assay
# Protocol: The biochemical activity of recombinant CaMKIIδ was measured by monitoring the phosphorylation of a target peptide using Homogenous Time Resolved Fluorescence (HTRF) technology from CisBio Bioassays.
# Chain of Calcium/calmodulin-dependent protein kinase type II subunit delta (Q13557 whole entry): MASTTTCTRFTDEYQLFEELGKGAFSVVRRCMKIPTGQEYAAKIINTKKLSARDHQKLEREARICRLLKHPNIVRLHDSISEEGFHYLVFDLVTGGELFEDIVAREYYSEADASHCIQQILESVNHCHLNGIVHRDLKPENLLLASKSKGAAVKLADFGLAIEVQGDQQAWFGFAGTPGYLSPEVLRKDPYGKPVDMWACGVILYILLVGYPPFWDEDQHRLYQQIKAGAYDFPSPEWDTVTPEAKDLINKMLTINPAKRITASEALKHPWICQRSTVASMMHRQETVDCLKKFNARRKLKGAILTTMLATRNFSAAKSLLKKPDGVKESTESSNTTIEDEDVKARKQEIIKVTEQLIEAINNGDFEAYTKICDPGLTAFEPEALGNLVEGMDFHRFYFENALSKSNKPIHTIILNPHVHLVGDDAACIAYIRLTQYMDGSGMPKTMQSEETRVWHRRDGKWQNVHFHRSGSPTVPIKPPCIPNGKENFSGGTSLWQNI
row,SMILES,IC50 [nM]
1,"CCN(CC)[C@@H](C)CNC(=O)c1cc(OCCN(C)C)nc(-c2cnn3ccc(-c4cccs4)nc23)c1 [US10100058, Example 347]",0.1
2,"COC1CN(c2cc(C(=O)N3CC[C@H](N)C3)cc(-c3cnn4ccc(-c5cccs5)nc34)n2)C1 [US10100058, Example 327]",9.25
3,"CN(CCn1ccnc1)c1cc(C(=O)N2CC3CCC(C2)NC3)cc(-c2cnn3ccc(-c4cccs4)nc23)n1 (stereo not drawn) [US10100058, Example 321]",9.11
4,"CCN(CC)[C@@H](C)CNC(=O)c1cc(-c2cnn3ccc(-c4cccs4)nc23)nc(N2CC[C@H]2C(=O)NCCO)c1 [US10100058, Example 297]",0.33
5,"CCN(CC)[C@@H](C)CNC(=O)c1cc(-c2cnn3ccc(-c4cccs4)nc23)nc(N2CC(NS(=O)(=O)Cc3ccon3)C2)c1 [US10100058, Example 175]",0.24

# Continued, values first:
row,IC50 [nM],SMILES
1,99.9,"CC(C)(N)CNC(=O)c1ccnc(-c2cnn3ccc(-c4ccccc4)nc23)c1 [US10100058, Example 64]"
2,8.62,"CCC(N)CNC(=O)c1ccnc(-c2cnn3ccc(-c4cccs4)nc23)c1 (stereo not drawn) [US10100058, Example 25]"
3,3.35,"CCN(CC)[C@@H](CO)CNC(=O)c1ccnc(-c2cnn3ccc(-c4ccccc4)nc23)c1 [US10100058, Example 58]"
